Test results published in US8110687B2, “Bicyclic compounds with kinase inhibitory activity” (Millennium Pharmaceuticals, Inc., priority 2005, dated 2012).

system: phospho-ERK formation (Raf kinase activity) in A375 cells; experiment: Phospho-ERK ELISA assay; assay type: cell-based; conditions: Homo sapiens, A-375, 3 h, 3 hours with inhibitor, read-out: IC50, inhibition of the formation of phospho-ERK
Experimental: Inhibition of Raf kinase activity in whole cell systems can be assessed by determining the decrease in phosphorylation of Raf kinase substrates. Any known Raf kinase substrate can be used to measure inhibition of Raf kinase activity in a whole cell system.
Medium was removed, and cells were incubated with Raf kinase inhibitors for 3 hours at 37° C. Medium was removed, and cells were fixed with 4% paraformaldehyde for 15 minutes at room temperature.
Methanol was added for 15 min. Cells were removed and blocked with 10% sheep serum and 1% BSA in PBS overnight at 4° C. Cells were incubated with anti-p44/42MAPK antibody (1:100, Cell Signaling Technologies, #9101L) (20 μL/well) for one hour at room temperature. After washing with PBS three times, cells were stained with anti-rabbit horseradish peroxidase-linked antibody from donkey (1:100, Amersham Bioscience #NA934V) for 1 hour at room temperature. Cells were washed three times with 0.5% Tween-20 in PBS and twice with PBS. 3,3′, 5,5′-Tetramethylbenzidine (TMB) liquid substrate system (Sigma, #T8665) (50 μL/well) was added, and cells were incubated for 30-45 minutes at room temperature. Optical density was read at 650 nm. Cells were then washed 3-5 times with PBS to remove color solution. Results were normalized for the protein content in each well using a BCA protein assay kit (Pierce).

Row | Compound | IC50
1 | N#Cc1ccc(NC(=O)c2ccc3ccc(Oc4ccnc(N)c4)cc3c2)cc1C(F)(F)F [Compound I-158, 7-[(2-aminopyridin-4-yl)oxy]-N-[4-cyano-3-(trifluoromethyl)phenyl]-2-naphthamide] | ≤ 25 µM
2 | CNC(=O)c1cc(Oc2ccc3c(c2)CC(C(=O)Nc2cccc(C(C)(C)C)c2)CC3)ccn1 (centres unmarked) [Compound I-23, 4-[(7-{[(3-tert-butylphenyl)amino]carbonyl}-5,6,7,8-tetrahydronaphthalen-2-yl)oxy]-N-methylpyridine-2-carboxamide] | ≤ 25 µM
3 | CN1Cc2ccc(Oc3ccnc(C4=NCCN4)c3)cc2CC1C(=O)Nc1ccc(Cl)c(C(F)(F)F)c1 (centres unmarked) [Compound I-11, N-[4-Chloro-3-(trifluoromethyl)phenyl]-6-{[2-(4,5-dihydro-1H-imidazol-2-yl)pyridin-4-yl]oxy}-2-methyl-1,2,3,4-tetrahydroisoquinoline-3-carboxamide] | ≤ 25 µM
4 | COC(=O)NCc1cc(Oc2ccc3c(c2)CC(C(=O)Nc2cc(CN)cc(C(F)(F)F)c2)CC3)ccn1 (centres unmarked) [Compound I-192, methyl [(4-{[7-({[3-(aminomethyl)-5-(trifluoromethyl)phenyl]amino}carbonyl)-5,6,7,8-tetrahydronaphthalen-2-yl]oxy}pyridin-2-yl)methyl]carbamate] | ≤ 25 µM
5 | O=C(Nc1ccc(Cl)c(C(F)(F)F)c1)c1cc2cc(Oc3ccnc(C4=NCCN4)c3)ccc2cn1 [Compound I-35, N-[4-chloro-3-(trifluoromethyl)phenyl]-6-{[2-(4,5-dihydro-1H-imidazol-2-yl)pyridin-4-yl]oxy}isoquinoline-3-carboxamide] | ≤ 25 µM
6 | CC(C)(C)c1cccc(NC(=O)c2ccc3ccc(Oc4ccnc(C5=NCCN5)c4)cc3n2)c1 [Compound I-50, N-(3-tert-butylphenyl)-7-{[2-(4,5-dihydro-1H-imidazol-2-yl)pyridin-4-yl]oxy}quinoline-2-carboxamide] | ≤ 25 µM
7 | CNC(=O)c1cc(Oc2ccc3c(c2)CC(C(=O)Nc2ccc(CN)c(C(F)(F)F)c2)CC3)ccn1 (centres unmarked) [Compound I-28, 4-{[7-({[4-(aminomethyl)-3-(trifluoromethyl)phenyl]amino}carbonyl)-5,6,7,8-tetrahydronaphthalen-2-yl]oxy}-N-methylpyridine-2-carboxamide] | ≤ 25 µM
8 | O=C(Nc1ccc(Cl)c(C(F)(F)F)c1)C1CCc2cccc(Oc3ccnc(C4=NCCN4)c3)c2C1 (centres unmarked) [Compound I-21, N-[4-chloro-3-(trifluoromethyl)phenyl]-8-{[2-(4,5-dihydro-1H-imidazol-2-yl)pyridin-4-yl]oxy}-1,2,3,4-tetrahydronaphthalene-2-carboxamide] | ≤ 25 µM
9 | CC(C)(C)c1cccc(NC(=O)C2CCc3ccc(Oc4ccnc(C(=N)N5CCCC5)c4)cc3C2)c1 (centres unmarked) [Compound I-194, N-(3-tert-butylphenyl)-7-({2-[imino(pyrrolidin-1-yl)methyl]pyridin-4-yl}oxy)-1,2,3,4-tetraydronaphthalene-2-carboxamide] | ≤ 25 µM
10 | Nc1cc(Oc2ccc3ccc(C(=O)Nc4cc(OCCN5CCCC5)cc(C(F)(F)F)c4)cc3c2)ccn1 [Compound I-142, 7-[(2-aminopyridin-4-yl)oxy]-N-[3-(2-pyrrolidin-1-ylethoxy)-5-(trifluoromethyl)phenyl]-2-naphthamide] | ≤ 25 µM
11 | CNC(=O)c1cc(Oc2ccc3c(c2)CC(C(=O)Nc2cccc(CN)c2)CC3)ccn1 (centres unmarked) [Compound I-51, 4-{[7-({[3-(aminomethyl)phenyl]amino}carbonyl)-5,6,7,8-tetrahydronaphthalen-2-yl]oxy}-N-methylpyridine-2-carboxamide] | ≤ 25 µM

Results, then the molecule that gave them:

Row | IC50 | Compound
12 | ≤ 25 µM | CC(C)(C)c1cccc(NC(=O)c2cnc3ccc(Oc4ccncc4)cc3c2)c1 [Compound I-299, N-(3-tert-butylphenyl)-6-(pyridin-4-yloxy)quinoline-3-carboxamide]
13 | ≤ 25 µM | N=C(N)c1cc(Oc2ccc3ccc(C(=O)Nc4ccc(CN)c(C(F)(F)F)c4)cc3c2)ccn1 [Compound I-381, 7-({2-[amino(imino)methyl]pyridin-4-yl}oxy)-N-[4-(aminomethyl)-3-(trifluoromethyl)phenyl]-2-naphthamide]
14 | ≤ 25 µM | CC(=O)NCc1cc(Oc2ccc3c(c2)CC(C(=O)Nc2cc(CN)cc(C(F)(F)F)c2)CC3)ccn1 (centres unmarked) [Compound I-203, 7-({2-[(acetylamino)methyl]pyridin-4-yl}oxy)-N-[3-(aminomethyl)-5-(trifluoromethyl)phenyl]-1,2,3,4-tetrahydronaphthalene-2-carboxamide]
15 | ≤ 25 µM | CC(C)(C)c1cccc(NC(=O)C2CCc3ccc(Oc4ccnc(NS(C)(=O)=O)c4)cc3C2)c1 (centres unmarked) [Compound I-254, N-(3-tert-butylphenyl)-7-({2-[(methylsulfonyl)amino]pyridin-4-yl}-oxy)-1,2,3,4-tetrahydronaphthalene-2-carboxamide]
16 | ≤ 25 µM | CCNC(=O)NCc1cc(NC(=O)C2CCc3ccc(Oc4ccnc(C(=O)NC)c4)cc3C2)cc(C(F)(F)F)c1 (centres unmarked) [Compound I-420, 4-{[7-({[3-({[(ethylamino)carbonyl]amino}methyl)-5-(trifluoromethyl)phenyl]amino}carbonyl)-5,6,7,8-tetrahydronaphthalen-2-yl]-oxy}-N-methylpyridine-2-carboxamide]
17 | ≤ 25 µM | CC(=O)Nc1cc(Oc2ccc3c(c2)CC(C(=O)Nc2ccc(Cl)cc2)CC3)ccn1 (centres unmarked) [Compound I-303, 7-{[2-(acetylamino)pyridin-4-yl]oxy}-N-(4-chlorophenyl)-1,2,3,4-tetrahydronaphthalene-2-carboxamide]
18 | ≤ 25 µM | CC(C)(C)c1cccc(NC(=O)c2ccc3ccc(Oc4ccnc(C#N)c4)cc3c2)c1 [Compound I-340, N-(3-tert-butylphenyl)-7-[(2-cyanopyridin-4-yl)oxy]-2-naphthamide]
19 | ≤ 25 µM | CNC(=O)c1cc(Oc2ccc3c(c2)CC(NC(=O)c2ccc(Cl)c(C(F)(F)F)c2)CC3)ccn1 (centres unmarked) [Compound I-444, 4-[(7-{[4-chloro-3-(trifluoromethyl)benzoyl]amino}-5,6,7,8-tetrahydronaphthalen-2-yl)oxy]-N-methylpyridine-2-carboxamide]
20 | ≤ 25 µM | O=C(Nc1cc(OCCN2CCCC2)cc(C(F)(F)F)c1)c1cnc2ccc(Oc3ccncc3)cc2c1 [Compound I-351, 6-(pyridin-4-yloxy)-N-[3-(2-pyrrolidin-1-ylethoxy)-5-(trifluoromethyl)phenyl]quinoline-3-carboxamide]
